Assay results from US11458433B2, “Absorbent and process for selectively removing hydrogen sulfide” (BASF SE, priority 2017, dated 2022).

Tests used:
Format in all cases: physicochemical
[1] = Phase separation: critical solution temperature in miscibility unit; conditions: 36 wt.-% aqueous solution; measurable up to 140° C.
Protocol: To determine the critical solution temperature, a miscibility unit was used. This unit allows the measurement of the temperature at which phase separation occurs (“critical solution temperature”).
The miscibility unit comprised a sight glass vessel equipped with a pressure gauge and a thermocouple. A heater was used to supply heat to the vessel. Measurements were possible up to a temperature of 140° C. The possible phase separation could be visually observed via the sight glass. In the following table, the measured critical solution temperatures are shown for different aqueous amine mixtures.

[2] = Volatility of amines in 30% by weight aqueous solutions (condensate analysis); conditions: 30 wt.-% amine + 70 wt.-% H2O, 200 mL, 50° C., 30 L (STP)/h N2, 8 h; average of three experiments
Protocol: The volatility of several amines in 30% by weight aqueous solutions was examined.
The glass cylinder was regulated to 50° C., and 200 mL of the absorbent were introduced in each case. Over an experimental duration of 8 h, 30 L (STP)/h of N2 were passed through the absorbent at ambient pressure.
The experiments were repeated three times.

[3] = pKA determination by titration with aqueous hydrochloric acid; conditions: aqueous amine solution; 20° C.; 0.005 mol/L amine in water titrated with 0.1 mol/L HCl
Protocol: The pKa values of MDEA and TBAPD were determined by means of titration. An aqueous solution with an amine concentration of 0.005 mol/L of amine was used and titrated with aqueous hydrochloric acid (0.1 mol/L) at 20° C.

| Compound | Critical Solution Temperature [1] | Amine in condensate [2] [wt.-%] | Condensate [2] [mL] | Water in condensate [2] [wt.-%] | pKa [3] |
| --- | --- | --- | --- | --- | --- |
| tert-butylaminoethoxyethylmorpholine [TBAEEM] | 131° ° C. | 0.2 | 30.5 | 99.6 | – |
| CC(C)(C)NCCOCCO [TBAEE, 2-(2-tert-butylaminoethoxy)ethanol] | – | 0.7 | 30.0 | 99.3 | – |
| COCCOCCOCCNC(C)(C)C [M3ETB, (2-(2-(2-tert-butylaminoethoxy)ethoxy)ethyl) methyl ether] | 107° ° C. | 0.7 | 30.1 | 99.2 | – |
| CC(C)(C)NCCN1CCCC1=O [TBAEPY, 1-[2-(tert-butylamino)ethyl]pyrrolidin-2-one] | —** (no phase separation observed at up to 140° C.) | 0.2 | 28.8 | 99.5 | 9.6 |
| tert-butylaminoethylmorpholine [TBAEM] | – | 1.6 | 34.8 | 98.0 | – |
